pIC50: −log10 of the molar value. Converted amounts (≈) assume the structure as drawn. Read-outs that look alike come from different tables or passages of the source.

The test system of data set [1] is P. falciparum chloroquine-resistant W2-strain. The data set can be described thus: In vitro drug susceptibility assay ([3H]-hypoxanthine incorporation), W2 strain. The class given is cell-based. The following applies: Plasmodium falciparum. How it is done:
(§1) Potential resistance to halofuginone derivatives of P. falciparum isolates were tested. Isolates of P. falciparum stored in liquid nitrogen are thawed and cultivated in RPMI 1640 media with 6% human erythrocytes supplemented with 10% of human serum. The parasite cultures are maintained in an atmosphere of 5% CO2, 5% O2 and 90% N2 at 37° C. for the assay. The semi-automated micro-dilution technique of Desjardins is used to assess the sensitivity of the parasites to febrifugine and halofuginone derivatives. The incorporation of [3H]-hypoxanthine into the parasites is measured as a function of compound concentration to determine EC50 values.

The test system of data set [2] is P. falciparum chloroquine-sensitive D6-strain. The data set can be described thus: In vitro drug susceptibility assay ([3H]-hypoxanthine incorporation), D6 strain. The class given is cell-based. To be noted: Plasmodium falciparum. As to the method:
as §1

The next data set deals with Macrophage cells (J774). The data set can be described thus: In vitro drug toxicity assay, macrophage cells. The class given is cell-based. To be noted: Mus musculus.
The subject of another data set is Neuronal cells (NG108). The data set can be described thus: In vitro drug toxicity assay, neuronal cells. The class given is cell-based. The following applies: NG-108.
For another data set, the target named is T1, PfMRK (Plasmodium falciparum, UniProt P90584).
T1 sequence (P90584 1-324): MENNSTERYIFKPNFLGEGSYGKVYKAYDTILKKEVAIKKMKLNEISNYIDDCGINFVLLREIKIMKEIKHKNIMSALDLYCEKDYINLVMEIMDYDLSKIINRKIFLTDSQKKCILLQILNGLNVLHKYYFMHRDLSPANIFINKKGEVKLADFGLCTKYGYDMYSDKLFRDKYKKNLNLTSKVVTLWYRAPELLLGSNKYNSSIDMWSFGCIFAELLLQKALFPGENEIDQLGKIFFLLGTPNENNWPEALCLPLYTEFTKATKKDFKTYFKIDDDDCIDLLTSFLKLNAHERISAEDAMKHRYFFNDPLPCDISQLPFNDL
Kind of data set: Kinase assay, recombinant plasmodial cyclin-dependent kinase. The class given is biochemical. The text has this: Halofuginone is a known to be a specific collagen gene transcription inhibitor. However, inhibition to other target enzymes by febrifugine, halofuginone and halofuginone derivatives in malarial parasites remain unknown. Quinazoline analogues (the family to which these compounds belong) are known to target dihydrofolate reductase, mammalian EGFR kinase, the stress-activated protein kinase and cyclin dependent kinase. A series of enzymatic assays are used to detect whether the derivatives have inhibition against these enzymes. DHFR assay is conducted using a well-characterized spectrophotometric method. Kinase assays are conducted using radioisotope-labeling technique. The responses of the recombinant kinases to the derivatives are measured in a scintillation b-counter and illustrated using SDS-page gel and PhosphoImager. These tests provide information on the compounds' abilities to interfere with the functions of these enzymes and alter the parasite physiological pathways on a molecular basis.

The next data set relates to Plasmodium berghei. The data set can be described thus: Modified Thompson test in P. berghei-infected mice. The class given is in vivo. To be noted: mice; for parasitemia of the infected mice: 10 mg/kg once/day for three days. As to the method:
An active animal use protocol mouse models are used to test the above compounds to determine antimalarial activity by using modified Thompson Test. In this test, IRC mice are inoculated intraperitoneally with P. berghei-infected erythrocytes from donor mice that are anesthetized and exsanguinated via cardiac puncture to collect infected blood. The pooled blood is then diluted with normal mouse serum to a concentration of 1×10^6 P. berghei erythrocytes per inoculum (0.1 ml). The groups of testing and control mice are inoculated with the infected blood on day 0 and then treated with various dosages of halofuginone or the derivatives in aqueous-based vehicles on day 3 through the day required. The drug is administered orally (PO), subcutaneously (SC), intramuscularly (IM), and/or intraperitoneally (IP) up to three times a day, based on the requirements. Blood films and body weights are taken on the third and sixth days post-infection, then at weekly intervals through day 60. Films are Giemsa-stained, examined using light microscopy for the determination of parasitemia. All mice with negative smears at 60 days are considered cured. The data from the in vivo testing verifies the antimalarial efficacy of febrifugine, halofuginone and the halofuginone derivatives in mice and provides new properties of halofuginone and halofuginone derivatives against malarial parasites in vivo.
The modified Thompson test was conducted in eleven groups of mice with eight mice per group. The tested mice were inoculated with P. Berghei on day zero and treated with febrifugines on days three with one oral or subcutaneous treatment per day for three days. […] The parasitemia of the infected mice was reduced to less than 3% with oral administration of 10 mg/kg febrifugines one/day for three days, while mice with the subcutaneous treatment had 30% of parasitemia at the same does as shown in FIGS. 3(a) through 3(d).
Eighty-eight ICR mice were inoculated with P. berghei, and separated into nine groups. Eight of the infected groups were treated with […] different doses of halofuginone twice a day for eight days. One group was treated with physiological saline as control. […] Two mice were cured at the doses of 0.25 and 0.5 mg/kg and survived 60 days after the treatment. […] The parasites were all cleared at the does of 1 mg/kg on day six.

Data set [3] can be described thus: Toxic effects in mice (observation and necropsy analysis). The class given is in vivo. To be noted: for diarrhea / gastrointestinal toxic effects: mice.
The mark [4] stands for this setting: Table 1, W2 strain, read-out: IC50 against P. falciparum W2 strain.
Setting [5] is: Table 4, W2, read-out: IC50 P. falciparum (W2).
Where [6] appears, read: Table 1, D6 strain, read-out: IC50 against P. falciparum D6 strain.
Where [7] appears, read: Table 4, D6, read-out: IC50 P. falciparum (D6).

As for `COC1CCCN[C@@H]1CC(=O)Cn1cnc2cc3c(cc2c1=O)OCO3` (stereo partly shown) [WR090212], the concentration for half-maximal inhibition (IC50) – broadly, the midpoint of a concentration-inhibition curve – in data set [1] (setting [4]) is 0.0256 µg/mL (≈ 0.0713 µM); in data set [1] (setting [5]), 0.0234 µg/mL (≈ 0.0651 µM); in data set [2] (setting [6]) it was 0.0181 µg/mL (≈ 0.0504 µM); in data set [2] (setting [7]) it was 0.0189 µg/mL (≈ 0.0527 µM); in the data set on Macrophage cells (J774) (Table 2, J774), 3.54 µg/mL (≈ 9.85 µM); in the data set with Macrophage cells (J774) (Table 4, J774), 2.97 µg/mL (≈ 8.27 µM). Further, the half-inhibitory concentration (IC50) in the data set on Neuronal cells (NG108) (Table 2, NG108) is 26 µg/mL (≈ 72.3 µM); with Neuronal cells (NG108) (Table 4, NG108) it was 24.8 µg/mL (≈ 69.1 µM).
On to `O=C(C[C@H]1NCCCC1O)Cn1cnc2cc3c(cc2c1=O)OCO3` (stereo partly shown) [WR092103], for which the IC50 in data set [1] (setting [5]) was determined as 0.00293 µg/mL (≈ 0.00848 µM); in data set [2] (setting [7]), 0.00238 µg/mL (≈ 0.00689 µM); in the data set with Macrophage cells (J774) (Table 4, J774) it was 3.61 µg/mL (≈ 10.4 µM); with Neuronal cells (NG108) (Table 4, NG108), 6.86 µg/mL (≈ 19.9 µM).
Consider `O=C(C[C@H]1NCCCC1O)Cn1cnc2cccc(Cl)c2c1=O` (stereo partly shown) [WR139672], for which the IC50 in data set [1] (setting [4]) worked out at 0.00163 µg/mL (≈ 0.00484 µM); in data set [1] (setting [5]) it was 0.00146 µg/mL (≈ 0.00435 µM); in data set [2] (setting [6]), 0.00123 µg/mL (≈ 0.00366 µM); in data set [2] (setting [7]), 0.00175 µg/mL (≈ 0.00521 µM); in the data set on Macrophage cells (J774) (Table 2, J774), 0.069 µg/mL (≈ 0.205 µM); in the data set with Macrophage cells (J774) (Table 4, J774), 0.392 µg/mL (≈ 1.17 µM). Also, the half-maximal inhibitory concentration (IC50) with Neuronal cells (NG108) (Table 2, NG108) turned out to be 1.31 µg/mL (≈ 3.91 µM); in the data set with Neuronal cells (NG108) (Table 4, NG108) it was 1.16 µg/mL (≈ 3.45 µM).
As for `COC1CCCN[C@@H]1CC(=O)Cn1cnc2ccc3c(c2c1=O)OCO3` (stereo partly shown) [WR140085], the IC50 in data set [1] (setting [4]) stood at 0.0141 µg/mL (≈ 0.0391 µM); in data set [1] (setting [5]), 0.0151 µg/mL (≈ 0.0419 µM); in data set [2] (setting [6]), 0.0105 µg/mL (≈ 0.0291 µM); in data set [2] (setting [7]) it was 0.0129 µg/mL (≈ 0.036 µM); in the data set with Macrophage cells (J774) (Table 2, J774) it was 3.29 µg/mL (≈ 9.14 µM); in the data set with Macrophage cells (J774) (Table 4, J774), 0.425 µg/mL (≈ 1.18 µM). Moreover, the IC50 in the data set with Neuronal cells (NG108) (Table 2, NG108) was 10.8 µg/mL (≈ 30.1 µM); with Neuronal cells (NG108) (Table 4, NG108) it was 15.5 µg/mL (≈ 43.1 µM).
On to `CCOC1CCCN[C@@H]1CC(=O)Cn1cnc2cc(Br)c(Cl)cc2c1=O` (stereo partly shown) [WR221232], for which the concentration for half-maximal inhibition (IC50) in data set [1] (setting [4]) is 0.0172 µg/mL (≈ 0.0388 µM); in data set [1] (setting [5]), 0.0115 µg/mL (≈ 0.0261 µM); in data set [2] (setting [6]), 0.0111 µg/mL (≈ 0.0251 µM); in data set [2] (setting [7]), 0.00945 µg/mL (≈ 0.0213 µM); in the data set on Macrophage cells (J774) (Table 2, J774) it was 0.287 µg/mL (≈ 0.647 µM); in the data set with Macrophage cells (J774) (Table 4, J774), 0.613 µg/mL (≈ 1.38 µM). For the same compound, the IC50 in the data set with Neuronal cells (NG108) (Table 2, NG108) worked out at 5.99 µg/mL (≈ 13.5 µM); in the data set on Neuronal cells (NG108) (Table 4, NG108) it was 8 µg/mL (≈ 18.1 µM). The negative logarithm of the IC50 (pIC50) (commonly the negative decadic logarithm of the IC50, by convention in mol/L) at PfMRK was roughly 3.95.
With `O=C(C[C@H]1NCCCC1O)Cn1cnc2c(Cl)c(Cl)c(Cl)cc2c1=O` (stereo partly shown) [WR222048], the IC50 is 0.00129 µg/mL (≈ 0.00319 µM) in data set [1] (setting [4]); 0.00098 µg/mL (≈ 0.00242 µM) in data set [1] (setting [5]); 0.000962 µg/mL (≈ 0.00238 µM) in data set [2] (setting [6]); 0.00082 µg/mL (≈ 0.00203 µM) in data set [2] (setting [7]); 0.11 µg/mL (≈ 0.272 µM) with Macrophage cells (J774) (Table 2, J774); 0.499 µg/mL (≈ 1.23 µM) with Macrophage cells (J774) (Table 4, J774). In addition, the half-maximal inhibitory concentration (IC50) in the data set on Neuronal cells (NG108) (Table 2, NG108) is 1.1 µg/mL (≈ 2.71 µM); in the data set with Neuronal cells (NG108) (Table 4, NG108), 0.879 µg/mL (≈ 2.17 µM).
Take “(2′S,3′R)-3-[3-(3-hydroxy-2-piperidyl)acetonyl]-4(3H)quinazolinone [Febrifugine]”: the “efficacy of oral versus subcutaneous treatment” value in the data set on Plasmodium berghei (one treatment per day for three days) is reported as “more efficacious”. The “parasitemia of the infected mice” value in the data set with Plasmodium berghei (oral administration) is “less than 3%”; in the data set with Plasmodium berghei (subcutaneous treatment), 30%. Further, in data set [3] (antimalarial dosages), the “toxic effects (nausea and vomiting) in mice” value is recorded as “do not appear to have such toxic effects”. In addition, the diarrhea result in data set [3] (effective treatment doses) was “did not induce diarrhea”; in data set [3] (toxic doses) it was “caused diarrhea”. Also, the gastrointestinal toxic effects result in data set [3] (oral treatment, toxic doses) was “severe gastrointestinal lesions and hemorrhage”; in data set [3] (subcutaneous treatment, toxic doses), “did not induce GI tract injury”. The vomiting entry in data set [3] (tested mice) is listed as “No vomiting has been observed”. Also, the necropsy findings result in data set [3] (toxic doses, mouse killed by drug) is “pale liver and intestine lesions and hemorrhage”.

Source of the values: patent publication US20040053950A1, “Antimalarial activities and therapeutic properties of febrifugine analogues” (priority 2002, published 2004).
